Tests used:
[1] = test system: laser-induced choroidal neovascularisation (CNV) lesions; experiment: In vivo angiogenesis assay: laser-induced choroidal neovascularisation (CNV); parameters: species or system C57/B6 mice; conditions: laser-induced mouse model of CNV; topical eye drops twice daily, 2 mg/mL, 10 μl; one week; FIG. 1(a)
Protocol: In Vivo Angiogenesis Assay: Laser-Induced Choroidal Neovascularisation (CNV) Protocol
6-8 week-old female C57/B6 mice were anesthetized with an intraperitoneal injection of a mixture of 50 mg/kg ketamine and 0.5 mg/kg medetomidine. The pupils were immediately dilated by topical (eyedrop) application with a dilator such as 5% phenylephrine hydrochloride and 1% tropicamide. Four photocoagulation lesions were delivered with a green Merilas 532α laser (450 mW, 130 ms) between the “large” retinal vessels in clear space with no vessels in a peripapillary distribution at a distance of 1-2 disc-diameters in each eye. Only clean laser lesions with a subretinal bubble at the time of treatment were included in the study. Immediately following laser photocoagulation the animals were given topical eye drops of candidate compounds twice daily (2 mg/mL, 10 μl, eyes held for 30 seconds to prevent animal wiping drop away).
After one week, mice were anesthetized with an intraperitoneal injection of a mixture of 50 mg/kg ketamine and 0.5 mg/kg medetomidine. The pupils were immediately dilated by topical (eyedrop) application with a dilator such as 5% phenylephrine hydrochloride and 1% tropicamide. Mice were administered an intraperitoneal injection of sodium fluorescein (10%). […]
The optical density of each well was measured immediately, using a microplate reader set to 450 nm.

CYP1A2 = target: T1, CYP1A2 (Homo sapiens, UniProt P05177); experiment: CYP inhibition assay, human liver microsomes, substrate tacrine; format: in vitro ADME; conditions: human liver microsomes, 10 min incubation, LC-MS/MS; read-out: CYP Inhibition Activity (IC50/nM) CYP1A2
T1 construct: from tissue; host or cells: human liver microsomes
T1 sequence (P05177 1-516): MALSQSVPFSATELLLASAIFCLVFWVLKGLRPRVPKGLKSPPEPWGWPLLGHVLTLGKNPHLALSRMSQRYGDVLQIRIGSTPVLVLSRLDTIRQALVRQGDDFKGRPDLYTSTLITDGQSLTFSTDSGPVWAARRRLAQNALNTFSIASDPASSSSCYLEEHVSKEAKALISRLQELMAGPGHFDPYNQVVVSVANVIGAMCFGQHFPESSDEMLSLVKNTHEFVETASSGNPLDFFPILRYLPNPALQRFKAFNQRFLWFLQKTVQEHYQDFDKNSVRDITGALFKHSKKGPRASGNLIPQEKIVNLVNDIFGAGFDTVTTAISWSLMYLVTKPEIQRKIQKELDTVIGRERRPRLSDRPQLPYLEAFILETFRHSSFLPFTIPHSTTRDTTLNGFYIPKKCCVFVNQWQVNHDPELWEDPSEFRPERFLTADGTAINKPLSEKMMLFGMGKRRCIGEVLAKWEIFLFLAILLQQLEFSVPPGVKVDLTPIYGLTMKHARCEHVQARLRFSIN
Method in brief: (§1)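 Metabolite formation measured by LC-MS/MS after quench with cold acetonitrile, yielding % inhibition and IC50. Reactions ran 10 min at 37° C after NADPH addition, following 20 min pre-incubation of substrate pool and inhibitor with human liver microsomes.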

CYP2C9 = target: T2, CYP2C9 (Homo sapiens, UniProt P11712); experiment: CYP inhibition assay, human liver microsomes, substrate diclofenac; format: in vitro ADME; conditions: human liver microsomes, 10 min incubation, LC-MS/MS; read-out: CYP Inhibition Activity (IC50/nM) CYP2C9
T2 construct: from tissue; host or cells: human liver microsomes
Method in brief: as §1

CYP2D6 = target: T3, CYP2D6 (Homo sapiens, UniProt P10635); experiment: biochemical; format: in vitro ADME
T3 construct: from tissue; host or cells: human liver microsomes
Method in brief: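 Read-out is LC-MS/MS of supernatant, giving % inhibition and IC50 relative to a no-inhibitor ACN/DMSO control. Compound and substrate pool were pre-incubated 20 min at 37° C with human liver microsomes (working stock 0.253 mg/mL) before a 10 min NADPH-driven reaction, quenched with cold ACN.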

CYP2C19 = target: T4, CYP2C19 (Homo sapiens, UniProt P33261); experiment: CYP inhibition assay, human liver microsomes, substrate S-mephenytoin; format: in vitro ADME; conditions: human liver microsomes, 10 min incubation, LC-MS/MS; read-out: CYP Inhibition Activity (IC50/nM) CYP2C19
T4 construct: from tissue; host or cells: human liver microsomes
Method in brief: as §1

SRPK1 = SRPK1 (Homo sapiens, UniProt Q96SB4); experiment: In vitro SRPK1 assay (Kinase-Glo); format: biochemical
CYP3A4 = target: T5, CYP3A4 (Homo sapiens, UniProt P08684); experiment: CYP inhibition assay, human liver microsomes, substrate midazolam; format: in vitro ADME; conditions: human liver microsomes, 10 min incubation, LC-MS/MS; read-out: CYP Inhibition Activity (IC50/nM) CYP3A4
T5 construct: from tissue; host or cells: human liver microsomes
Method in brief: as §1

SRPK1, sequence (Q96SB4 whole entry, species assumed): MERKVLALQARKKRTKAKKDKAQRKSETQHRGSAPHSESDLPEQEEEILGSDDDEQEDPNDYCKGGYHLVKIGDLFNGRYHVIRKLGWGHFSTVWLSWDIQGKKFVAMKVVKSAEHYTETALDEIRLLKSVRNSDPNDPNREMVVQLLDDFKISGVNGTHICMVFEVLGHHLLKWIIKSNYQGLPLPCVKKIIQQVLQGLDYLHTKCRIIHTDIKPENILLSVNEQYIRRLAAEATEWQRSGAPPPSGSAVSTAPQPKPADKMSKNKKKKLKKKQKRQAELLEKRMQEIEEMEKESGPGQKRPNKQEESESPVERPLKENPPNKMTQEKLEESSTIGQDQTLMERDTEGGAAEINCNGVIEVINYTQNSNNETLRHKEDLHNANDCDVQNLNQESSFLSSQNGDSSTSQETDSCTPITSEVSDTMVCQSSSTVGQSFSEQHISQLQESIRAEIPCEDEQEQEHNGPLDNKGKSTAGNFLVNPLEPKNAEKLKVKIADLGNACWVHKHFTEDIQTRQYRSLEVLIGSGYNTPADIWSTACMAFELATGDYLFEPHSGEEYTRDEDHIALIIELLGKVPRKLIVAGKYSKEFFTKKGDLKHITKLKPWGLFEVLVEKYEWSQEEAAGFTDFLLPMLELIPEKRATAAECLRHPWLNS
T4 sequence (P33261 whole entry): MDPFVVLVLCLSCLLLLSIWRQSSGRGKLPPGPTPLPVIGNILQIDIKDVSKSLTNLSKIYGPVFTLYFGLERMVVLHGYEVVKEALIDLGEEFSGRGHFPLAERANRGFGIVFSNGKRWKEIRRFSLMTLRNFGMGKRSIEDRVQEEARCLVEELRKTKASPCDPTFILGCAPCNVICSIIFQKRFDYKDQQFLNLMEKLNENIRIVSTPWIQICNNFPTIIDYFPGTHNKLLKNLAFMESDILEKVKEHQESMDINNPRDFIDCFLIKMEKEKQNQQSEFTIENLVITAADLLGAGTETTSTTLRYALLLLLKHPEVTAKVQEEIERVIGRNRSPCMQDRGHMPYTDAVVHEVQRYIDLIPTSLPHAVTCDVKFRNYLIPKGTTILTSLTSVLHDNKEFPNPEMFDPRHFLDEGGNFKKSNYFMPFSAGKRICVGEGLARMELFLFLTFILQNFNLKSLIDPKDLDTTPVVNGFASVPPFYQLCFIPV
T3 sequence (P10635 whole entry): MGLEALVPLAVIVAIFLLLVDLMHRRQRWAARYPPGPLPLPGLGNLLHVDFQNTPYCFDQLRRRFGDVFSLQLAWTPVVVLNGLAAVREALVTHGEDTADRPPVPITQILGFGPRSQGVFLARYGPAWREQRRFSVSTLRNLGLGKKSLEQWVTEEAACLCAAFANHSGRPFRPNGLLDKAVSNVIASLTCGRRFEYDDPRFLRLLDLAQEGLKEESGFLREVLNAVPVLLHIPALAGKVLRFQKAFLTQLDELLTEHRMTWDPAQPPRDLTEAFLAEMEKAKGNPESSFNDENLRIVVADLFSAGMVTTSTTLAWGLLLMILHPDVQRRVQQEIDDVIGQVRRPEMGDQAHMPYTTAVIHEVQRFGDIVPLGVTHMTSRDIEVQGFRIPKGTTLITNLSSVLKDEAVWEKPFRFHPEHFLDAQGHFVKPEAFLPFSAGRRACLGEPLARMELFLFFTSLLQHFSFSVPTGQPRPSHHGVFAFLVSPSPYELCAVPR
T5 sequence (P08684 whole entry): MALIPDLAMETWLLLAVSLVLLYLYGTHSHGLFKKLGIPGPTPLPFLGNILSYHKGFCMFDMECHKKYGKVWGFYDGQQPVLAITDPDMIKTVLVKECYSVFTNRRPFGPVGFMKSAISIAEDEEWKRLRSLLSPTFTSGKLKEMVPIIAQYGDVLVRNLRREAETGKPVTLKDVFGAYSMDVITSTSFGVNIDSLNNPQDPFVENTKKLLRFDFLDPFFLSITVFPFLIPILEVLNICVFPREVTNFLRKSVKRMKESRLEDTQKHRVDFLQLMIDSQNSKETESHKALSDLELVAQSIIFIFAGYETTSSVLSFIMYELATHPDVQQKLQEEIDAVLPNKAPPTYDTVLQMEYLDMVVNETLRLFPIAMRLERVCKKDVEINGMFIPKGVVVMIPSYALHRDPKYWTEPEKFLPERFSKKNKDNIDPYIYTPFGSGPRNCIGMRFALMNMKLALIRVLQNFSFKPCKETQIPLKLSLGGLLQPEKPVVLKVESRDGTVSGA
T2 sequence (P11712 whole entry): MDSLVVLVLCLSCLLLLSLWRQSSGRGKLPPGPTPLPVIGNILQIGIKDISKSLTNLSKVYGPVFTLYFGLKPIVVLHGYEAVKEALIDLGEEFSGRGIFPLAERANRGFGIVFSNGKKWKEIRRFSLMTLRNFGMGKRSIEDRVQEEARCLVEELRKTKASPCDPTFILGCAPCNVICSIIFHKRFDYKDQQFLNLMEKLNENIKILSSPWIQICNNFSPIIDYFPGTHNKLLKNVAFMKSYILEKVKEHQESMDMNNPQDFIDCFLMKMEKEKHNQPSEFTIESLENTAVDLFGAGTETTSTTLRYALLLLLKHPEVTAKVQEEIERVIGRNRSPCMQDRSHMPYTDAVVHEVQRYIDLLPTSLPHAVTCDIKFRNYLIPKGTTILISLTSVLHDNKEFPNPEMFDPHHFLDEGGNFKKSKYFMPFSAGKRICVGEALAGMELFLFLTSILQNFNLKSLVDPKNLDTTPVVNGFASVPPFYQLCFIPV

Row | Structure (SMILES) | anti-angiogenic activity on lesion size [1] | IC50 (CYP1A2) | IC50 (CYP2C9) | IC50 (CYP2D6) | IC50 (CYP2C19) | IC50 (SRPK1) | IC50 (CYP3A4)
1 | CC1(O)CCN(c2ccc(Cl)cc2NC(=O)c2ccc(C3CCOCC3)o2)CC1 [Example 12] | improved anti-angiogenic activity on lesion size and the same efficacy as reference compounds | 13900 nM | 6980 nM | 23.2 µM | 11800 nM | 0.3 nM | 2660 nM
2 | CC1(N)CCN(c2ccc(C(F)(F)F)cc2NC(=O)c2ccc(-c3ccncc3)o2)CC1 [Example 102, N-(2-(4-amino-4-methylpiperidin-1-yl)-5-(trifluoromethyl)phenyl)-5-(pyridin-4-yl)furan-2-carboxamide] | – | > 30000 nM | 14100 nM | 0.1 µM | 9400 nM | 44.6 nM | 3900 nM
3 | CC1(C(=O)N2CCOCC2)CCN(c2ccc(C(F)(F)F)cc2NC(=O)c2ccc(C3CCOCC3)o2)CC1 [Example 90, N-(2-(4-methyl-4-(morpholine-4-carbonyl)-piperidin-1-yl)-5-(trifluoromethyl)phenyl)-5-(tetrahydro-2H-pyran-4-yl)furan-2-carboxamide] | – | > 30000 nM | 1000 nM | 11.6 µM | 10300 nM | 5.5 nM | 2800 nM
4 | CN(C)C(=O)C1(C)CCN(c2ccc(Cl)cc2NC(=O)c2ccc(C3CCOCC3)o2)CC1 [Example 84, 1-(4-chloro-2-(5-(tetrahydro-2H-pyran-4-yl)furan-2-carboxamido)phenyl)-N,N,4-trimethyl-piperidine-4-carboxamide] | – | > 30000 nM | 600 nM | 12.4 µM | 8000 nM | 23 nM | 2200 nM
5 | CC1(C(=O)N2CCCCC2)CCN(c2ccc(C(F)(F)F)cc2NC(=O)c2ccc(C3CCOCC3)o2)CC1 [Example 89, N-(2-(4-methyl-4-(piperidine-1-carbonyl)-piperidin-1-yl)-5-(trifluoromethyl)phenyl)-5-(tetrahydro-2H-pyran-4-yl)furan-2-carboxamide] | – | > 30000 nM | 2500 nM | 18.9 µM | 14100 nM | 14 nM | 2800 nM
6 | CC1(O)CCN(c2ccc(C(F)(F)F)cc2NC(=O)c2ccc(-c3ccncc3)o2)CC1 [Example 4, N-(2-(4-hydroxy-4-methylpiperidin-1-yl)-5-(trifluoromethyl)phenyl)-5-(pyridin-4-yl)furan-2-carboxamide] | – | 23200 nM | 2480 nM | 3.45 µM | 2480 nM | 5 nM | 4900 nM
7 | O=C(Nc1cc(C(F)(F)F)ccc1N1CCC(O)CC1)c1ccc(C2CCOCC2)o1 [Example 33, N-(2-(4-hydroxypiperidin-1-yl)-5-(trifluoromethyl)-phenyl)-5-(tetrahydro-2H-pyran-4-yl)furan-2-carboxamide] | – | 10000 nM | 7600 nM | 15.2 µM | 8100 nM | 0.9 nM | > 30000 nM
8 | Cc1ccc(N2CCC(C)(C(=O)N(C)C)CC2)c(NC(=O)c2ccc(C3CCOCC3)o2)c1 [Example 87, N,N,4-trimethyl-1-(4-methyl-2-(5-(tetrahydro-2H-pyran-4-yl)furan-2-carboxamido)phenyl)piperidine-4-carboxamide] | – | > 30000 nM | 800 nM | > 30 µM | 14300 nM | 27 nM | 5900 nM

From patent US11420969B2 (Exonate Limited, priority 2017, dated 2022)
